Columns and labels:
[1] = molecular target: T1, Alpha-2C adrenergic receptor (Homo sapiens, UniProt P18825); assay: DRUGMATRIX: Adrenergic Alpha-2C radioligand binding (ligand: [3H] MK-912); format: cell membranes, Sf9, Membrane
T1 sequence (P18825 whole entry): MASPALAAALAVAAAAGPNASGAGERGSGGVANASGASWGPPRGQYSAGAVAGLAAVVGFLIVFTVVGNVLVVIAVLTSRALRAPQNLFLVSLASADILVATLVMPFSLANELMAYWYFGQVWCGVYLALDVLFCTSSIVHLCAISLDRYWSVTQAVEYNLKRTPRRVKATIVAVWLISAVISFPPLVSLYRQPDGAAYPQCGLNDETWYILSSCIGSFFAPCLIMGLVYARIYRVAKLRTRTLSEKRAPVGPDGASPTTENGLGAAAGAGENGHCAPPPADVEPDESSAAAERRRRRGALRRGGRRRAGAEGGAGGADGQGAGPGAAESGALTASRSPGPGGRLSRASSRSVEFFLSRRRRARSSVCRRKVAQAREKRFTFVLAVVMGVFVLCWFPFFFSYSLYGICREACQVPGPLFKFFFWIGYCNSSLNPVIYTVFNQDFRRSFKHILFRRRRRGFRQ

[2] = DRUGMATRIX: Atrial Natriuretic Factor (ANF) radioligand binding (ligand: [125I] ANF (rat)); format: cell membranes, Cavia porcellus, Dunkin-Hartley, Adrenal gland, Membrane; details: Not Active = under 50% inhibition at 10 µM
Substance-K receptor = molecular target: T2, Substance-K receptor (Homo sapiens, UniProt P21452); format: cell membranes, CHO, Membrane; note: in other assays of this panel Not Active means under 50% inhibition at 10 µM
T2 sequence (P21452 whole entry): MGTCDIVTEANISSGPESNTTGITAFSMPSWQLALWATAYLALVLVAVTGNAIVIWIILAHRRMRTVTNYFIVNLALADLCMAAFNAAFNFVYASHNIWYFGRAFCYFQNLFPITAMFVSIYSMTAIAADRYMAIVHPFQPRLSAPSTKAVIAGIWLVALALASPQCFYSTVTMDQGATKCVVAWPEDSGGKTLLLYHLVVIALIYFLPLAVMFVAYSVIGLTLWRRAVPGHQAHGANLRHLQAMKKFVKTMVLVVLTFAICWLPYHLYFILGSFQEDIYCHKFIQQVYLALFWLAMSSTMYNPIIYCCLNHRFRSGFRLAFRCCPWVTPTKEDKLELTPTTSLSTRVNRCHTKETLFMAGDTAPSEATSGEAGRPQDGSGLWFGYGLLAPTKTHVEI

[3] = DRUGMATRIX: Leukotriene, BLT (LTB4) radioligand binding (ligand: [3H]LTB4); format: cell membranes, Membrane; details: u-937; Not Active = under 50% inhibition at 10 µM
Progesterone receptor = molecular target: T3, Progesterone receptor (Bos taurus, UniProt Q690N0); assay: DRUGMATRIX: Progesterone radioligand binding (ligand: [3H] R-5020); format: tissue-based, Uterus; details: Not Active = under 50% inhibition at 10 µM
T3 sequence (Q690N0 whole entry): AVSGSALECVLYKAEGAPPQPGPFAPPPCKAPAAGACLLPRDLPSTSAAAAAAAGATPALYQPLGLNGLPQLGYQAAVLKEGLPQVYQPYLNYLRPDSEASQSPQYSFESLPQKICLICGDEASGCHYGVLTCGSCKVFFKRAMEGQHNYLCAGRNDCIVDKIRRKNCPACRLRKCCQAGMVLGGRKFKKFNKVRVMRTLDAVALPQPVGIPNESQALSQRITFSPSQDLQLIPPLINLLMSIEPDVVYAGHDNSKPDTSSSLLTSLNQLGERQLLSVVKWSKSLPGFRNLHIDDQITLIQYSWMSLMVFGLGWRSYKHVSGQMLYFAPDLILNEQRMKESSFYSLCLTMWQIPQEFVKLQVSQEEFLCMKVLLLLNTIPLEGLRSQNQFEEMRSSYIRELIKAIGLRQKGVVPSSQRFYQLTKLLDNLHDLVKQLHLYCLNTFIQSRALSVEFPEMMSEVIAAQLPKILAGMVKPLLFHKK

Cytochrome P450 2A6 = molecular target: T4, Cytochrome P450 2A6 (Homo sapiens, UniProt P11509); details: bti-tn-5b1-4; note: in other assays of this panel Not Active means under 50% inhibition at 10 µM
T4 sequence (P11509 whole entry): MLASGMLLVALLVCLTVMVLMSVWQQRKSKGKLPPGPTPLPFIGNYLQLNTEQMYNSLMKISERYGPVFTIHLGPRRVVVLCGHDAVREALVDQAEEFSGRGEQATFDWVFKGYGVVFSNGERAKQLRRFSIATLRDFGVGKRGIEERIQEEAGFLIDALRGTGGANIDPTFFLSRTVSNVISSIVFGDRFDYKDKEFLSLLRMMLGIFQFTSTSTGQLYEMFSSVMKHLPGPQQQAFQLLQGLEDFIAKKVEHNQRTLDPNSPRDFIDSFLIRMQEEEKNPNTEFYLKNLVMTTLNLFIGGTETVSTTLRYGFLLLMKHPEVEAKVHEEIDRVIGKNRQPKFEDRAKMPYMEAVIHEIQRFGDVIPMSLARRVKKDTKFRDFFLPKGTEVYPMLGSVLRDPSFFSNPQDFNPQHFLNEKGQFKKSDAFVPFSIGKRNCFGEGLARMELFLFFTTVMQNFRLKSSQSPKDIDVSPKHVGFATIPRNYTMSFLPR

| Compound | IC50 ([1]; sf9) | IC50 [2] | Ki [2] | IC50 (Substance-K receptor; cho) | IC50 [3] | Ki [3] | IC50 (Progesterone receptor) | IC50 (Cytochrome P450 2A6) | Ki (Cytochrome P450 2A6) | IC50 ([1]; read-out: IC50) [nM] | Ki ([1]; read-out: Ki) [nM] | Ki ([1]; sf9) | Ki (Substance-K receptor; cho) | Ki (Progesterone receptor) | IC50 (Substance-K receptor; read-out: IC50) [nM] | Ki (Substance-K receptor; read-out: Ki) [nM] | IC50 (Progesterone receptor; read-out: IC50) [nM] | Ki (Progesterone receptor; read-out: Ki) [nM] |
| --- | --- | --- | --- | --- | --- | --- | --- | --- | --- | --- | --- | --- | --- | --- | --- | --- | --- | --- |
| O=C(Oc1ccccc1C(=O)O)c1ccccc1O [SALSALATE] | Not Active | Not Active | Not Active | Not Active | Not Active | Not Active | Not Active | Not Active | Not Active |  |  |  |  |  |  |  |  |  |
| CNC1(c2ccccc2Cl)CCCCC1=O (configuration not stated) [KETAMINE] | Not Active | Not Active | Not Active | Not Active | Not Active | Not Active | Not Active | Not Active | Not Active |  |  |  |  |  |  |  |  |  |
| Fc1ccc(C(c2ccc(F)cc2)N2CCN(C/C=C/c3ccccc3)CC2)cc1 [FLUNARIZINE] |  |  |  | Not Active |  |  | Not Active | Not Active | Not Active | 222 | 32 |  |  |  |  |  |  |  |
| CN[C@H]1CC[C@@H](c2ccc(Cl)c(Cl)c2)c2ccccc21 [SERTRALINE] |  |  |  | Not Active |  |  | Not Active | Not Active | Not Active |  |  |  |  |  |  |  |  |  |
| O=C(Nc1ccc(Br)cc1)c1cc(Br)cc(Br)c1O [TRIBROMSALAN] | Not Active | Not Active | Not Active | Not Active | Not Active | Not Active | Not Active | Not Active | Not Active |  |  |  |  |  |  |  |  |  |
| CC(C)NCC(O)c1ccc(O)c(O)c1 (configuration not stated) [ISOPROTERENOL] | Not Active | Not Active | Not Active | Not Active | Not Active | Not Active | Not Active | Not Active | Not Active |  |  |  |  |  |  |  |  |  |
| Cc1cccc(C)c1OCC(C)N (configuration not stated) [MEXILETINE] | Not Active | Not Active | Not Active | Not Active | Not Active | Not Active | Not Active | Not Active | Not Active |  |  |  |  |  |  |  |  |  |
| MANGANESE CHLORIDE ANHYDROUS | Not Active | Not Active | Not Active | Not Active | Not Active | Not Active | Not Active | Not Active | Not Active |  |  | Not Active | Not Active | Not Active |  |  |  |  |
| CCN(CC)CCNC(=O)c1cc(S(C)(=O)=O)ccc1OC [TIAPRIDE] | Not Active | Not Active | Not Active | Not Active | Not Active | Not Active | Not Active | Not Active | Not Active |  |  |  |  |  |  |  |  |  |
| Clc1ccc(COC(Cn2ccnc2)c2ccc(Cl)cc2Cl)cc1 (configuration not stated) [ECONAZOLE] | Not Active |  |  |  |  |  |  | Not Active | Not Active |  |  |  |  |  | 6030 | 2010 | 10200 | 1330 |
| COc1c2occc2cc2ccc(=O)oc12 [METHOXSALEN] | Not Active | Not Active | Not Active | Not Active | Not Active | Not Active | Not Active | Not Active | Not Active |  |  |  |  |  |  |  |  |  |
| O.O.O.O.O.O.[Cl-].[Cl-].[Sr+2] [STRONTIUM CHLORIDE HEXAHYDRATE] | Not Active | Not Active | Not Active | Not Active | Not Active | Not Active | Not Active | Not Active | Not Active |  |  |  |  |  |  |  |  |  |
| COc1ccc(CCN(C)CCCC(C#N)(c2ccc(OC)c(OC)c2)C(C)C)cc1OC (configuration not stated) | Not Active | Not Active | Not Active | Not Active | Not Active | Not Active | Not Active | Not Active | Not Active |  |  |  |  |  |  |  |  |  |
| CCN(CC)CCOc1ccc(/C(=C(/Cl)c2ccccc2)c2ccccc2)cc1 [ENCLOMIPHENE] |  |  |  |  |  |  | Not Active | Not Active | Not Active | 1480 | 215 |  |  |  | 4520 | 1510 |  |  |
| Clc1ccccc1CN1CCc2sccc2C1 [TICLOPIDINE] |  | Not Active | Not Active | Not Active | Not Active | Not Active | Not Active | Not Active | Not Active | 1170 | 171 |  |  |  |  |  |  |  |
| CC(C)Oc1ccc2c(=O)c(-c3ccccc3)coc2c1 [IPRIFLAVONE] | Not Active | Not Active | Not Active | Not Active | Not Active | Not Active | Not Active | Not Active | Not Active |  |  |  |  |  |  |  |  |  |
| COc1cc2nc(N3CCN(C(=O)C4CCCO4)CC3)nc(N)c2cc1OC (configuration not stated) [TERAZOSIN] |  | Not Active | Not Active | Not Active | Not Active | Not Active |  | Not Active | Not Active |  |  |  |  |  |  |  |  |  |
| C[C@H]1C[C@@H]2[C@H]([C@@H](O)C[C@@]3(C)[C@H]2CC[C@]3(O)C(=O)CO)[C@@]2(C)C=CC(=O)C=C12 [METHYLPREDNISOLONE] | Not Active | Not Active | Not Active | Not Active | Not Active | Not Active | Not Active | Not Active | Not Active |  |  |  |  |  |  |  |  |  |
| NC1CCN(c2nc3c(cc2F)c(=O)c(C(=O)O)cn3-c2ccc(F)cc2F)C1 (configuration not stated) [TOSUFLOXACIN] | Not Active | Not Active | Not Active | Not Active | Not Active | Not Active | Not Active | Not Active | Not Active |  |  |  |  |  |  |  |  |  |
| SODIUM ORTHOVANAD | Not Active | Not Active | Not Active | Not Active | Not Active | Not Active | Not Active | Not Active | Not Active |  |  | Not Active | Not Active | Not Active |  |  |  |  |
| Cc1c(C)c2c(c(C)c1O)CCC(C)(CN1CCN(c3cc(N4CCCC4)nc(N4CCCC4)n3)CC1)O2 (configuration not stated) | Not Active | Not Active | Not Active | Not Active | Not Active | Not Active | Not Active |  |  |  |  |  |  |  |  |  |  |  |
| O=C(O)c1cn(-c2ccc(F)cc2)c2cc(N3CCNCC3)c(F)cc2c1=O [SARAFLOXACIN] | Not Active | Not Active | Not Active | Not Active | Not Active | Not Active | Not Active | Not Active | Not Active |  |  |  |  |  |  |  |  |  |
| CN(C)CCOC(c1ccccc1)c1ccccc1 [DIPHENHYDRAMINE] | Not Active |  |  | Not Active |  |  | Not Active |  |  |  |  |  |  |  |  |  |  |  |
| CNCCC(Oc1ccc(C(F)(F)F)cc1)c1ccccc1 (configuration not stated) [FLUOXETINE] | Not Active |  |  | Not Active |  |  | Not Active | Not Active | Not Active |  |  |  |  |  |  |  |  |  |
| Cc1ccc(NC(=O)c2ccc(CN3CCN(C)CC3)cc2)cc1Nc1nccc(-c2cccnc2)n1 [IMATINIB] | Not Active |  |  | Not Active |  |  | Not Active | Not Active | Not Active |  |  |  |  |  |  |  |  |  |

Reference: ChEMBL document CHEMBL1909046, “DrugMatrix in vitro pharmacology data”
